# Several values for one entry are separate records, joined by “and”; a condition that tells them apart may be missing. Equal values may be shown once. Read-outs that look alike come from different tables or passages of the source.
# Legend:
# [1] = BDP as a solution in HFA 134a (formulations of EP 0553298), reported in literature; cited from earlier work
# [2] = Aerodynamic particle size distribution of pMDI solution formulations by Andersen Cascade Impactor (MMAD, GSD, fine particle dose); format: physicochemical; conditions: for FPD3 < 4.7 μm*: ethanol 15%, normalized for 250 nominal dose
# Protocol: The aerodynamic particle size distribution of each formulation was characterized using a Multistage Cascade Impactor according to the procedure described in the European Pharmacopoeia 2nd edition, 1995, part V.5.9.1. pages 15-17. In this specific case an Andersen Cascade Impactor (ACI) was used. Results represented were obtained from ten cumulative actuations of a formulation. Deposition of the drug on each ACI plate was determined by high pressure liquid chromatography. The mass median aerodynamic diameter (MMAD) and geometric standard deviation (GSD) were calculated from plots of the cumulative percentage undersize of drug collected on each ACI plate (probit scale), against the upper cut off diameter for each respective ACI plate (log10 scale). The fine particle dose of each formulation was determined from the mass of drug collected on Stages 3 through to Filter (<4.7 μm) divided by the number of actuations per experiment.
# [3] = BDP 50 μg/shot, ethanol 13%, glycerol 1.3%, HFA 134a, chamber volume 25 μl, actuator orifice 0.25 mm
# [4] = BDP 50 μg/shot, ethanol 13%, glycerol 1.3%, HFA 134a, chamber volume 25 μl, actuator orifice 0.30 mm
# [5] = BDP 50 μg/shot, ethanol 13%, glycerol 1.3%, HFA 134a, chamber volume 50 μl, actuator orifice 0.30 mm
# [6] = BDP 50 μg/shot, ethanol 13%, glycerol 1.3%, HFA 134a, chamber volume 100 μl, actuator orifice 0.30 mm
# [7] = BDP 50 μg/shot, ethanol 13%, glycerol 1.3%, HFA 227, chamber volume 25 μl, actuator orifice 0.30 mm
# [8] = BDP 50 μg/shot, ethanol 13%, glycerol 1.3%, HFA 227, chamber volume 50 μl, actuator orifice 0.30 mm
# [9] = BDP 50 μg/shot, ethanol 13%, glycerol 1.3%, HFA 227, chamber volume 100 μl, actuator orifice 0.30 mm
# [10] = BDP 250 μg/shot, ethanol 15% (w/w), glycerol 1.3% (w/w), actuator 0.30 mm, HFA 227/HFA 134a 0:100
# [11] = BDP 250 μg/shot, ethanol 15% (w/w), glycerol 1.3% (w/w), actuator 0.30 mm, HFA 227/HFA 134a 25:75
# [12] = BDP 250 μg/shot, ethanol 15% (w/w), glycerol 1.3% (w/w), actuator 0.30 mm, HFA 227/HFA 134a 50:50
# [13] = BDP 250 μg/shot, ethanol 15% (w/w), glycerol 1.3% (w/w), actuator 0.30 mm, HFA 227/HFA 134a 75:25
# [14] = BDP 250 μg/shot, ethanol 15% (w/w), glycerol 1.3% (w/w), actuator 0.30 mm, HFA 227/HFA 134a 100:0
compound,measurement,setting,value
"CCC(=O)OCC(=O)[C@@]1(OC(=O)CC)[C@@H](C)C[C@H]2[C@@H]3CCC4=CC(=O)C=C[C@]4(C)[C@@]3(Cl)[C@@H](O)C[C@@]21C [BDP, beclomethasone 17,21 dipropionate]",MMAD,[1],1.1 μm
same,FPD < 4.7 μm,[2]; [3],26.0 µg
same,GSD,[2]; [3],1.9
same,MMAD,[2]; [3],2.8 μm
same,Metered Dose,[2]; [3],55 µg
same,FPD < 4.7 μm,[2]; [4],19.2 µg
same,GSD,[2]; [4],2.0
same,MMAD,[2]; [4],2.6 μm
same,Metered Dose,[2]; [4],57 µg
same,FPD < 4.7 μm,[2]; [5],13.9 µg
same,GSD,[2]; [5],2.1
same,MMAD,[2]; [5],2.8 μm
same,Metered Dose,[2]; [5],49 µg
same,FPD < 4.7 μm,[2]; [6],11.7 µg
same,GSD,[2]; [6],2.2
same,MMAD,[2]; [6],2.7 μm
same,Metered Dose,[2]; [6],51 µg
same,FPD < 4.7 μm,[2]; [7],16.4 µg
same,GSD,[2]; [7],2.1
same,MMAD,[2]; [7],3.6 μm
same,Metered Dose,[2]; [7],58 µg
same,FPD < 4.7 μm,[2]; [8],13.1 µg
same,GSD,[2]; [8],2.2
same,MMAD,[2]; [8],3.5 μm
same,Metered Dose,[2]; [8],51 µg
same,FPD < 4.7 μm,[2]; [9],12.6 µg
same,GSD,[2]; [9],2.2
same,MMAD,[2]; [9],3.5 μm
same,Metered Dose,[2]; [9],49 µg
same,FPD,[2]; [10],"27, 27%"
same,MMAD,[2]; [10],"2.8, 2.8 μm"
same,FPD,[2]; [11],27% and 28%
same,MMAD,[2]; [11],3.3 μm and 3.2 μm
same,FPD,[2]; [12],"25, 25%"
same,MMAD,[2]; [12],3.4 μm and 3.7 μm
same,FPD,[2]; [13],"25, 25%"
same,MMAD,[2]; [13],"3.7, 3.7 μm"
same,FPD,[2]; [14],20% and 24%
same,MMAD,[2]; [14],4.2 μm and 3.9 μm and 3.8 μm
same,FPD3 < 4.7 μm*,"[2]; BDP 250 μg/shot, glycerol 1.3%, actuator 0.30 mm, HFA 227/HFA 134a 0:100",58 µg and 59 µg
same,FPD3 < 4.7 μm*,"[2]; BDP 250 μg/shot, glycerol 1.3%, actuator 0.30 mm, HFA 227/HFA 134a 25:75",60 µg and 62 µg
same,FPD3 < 4.7 μm*,"[2]; BDP 250 μg/shot, glycerol 1.3%, actuator 0.30 mm, HFA 227/HFA 134a 50:50","56, 56 μg"
same,FPD3 < 4.7 μm*,"[2]; BDP 250 μg/shot, glycerol 1.3%, actuator 0.30 mm, HFA 227/HFA 134a 75:25",56 µg and 57 µg
same,FPD3 < 4.7 μm*,"[2]; BDP 250 μg/shot, glycerol 1.3%, actuator 0.30 mm, HFA 227/HFA 134a 100:0",47 µg and 45 µg and 50 µg

# — patent US20040184993A1, “Pharmaceutical aerosol composition containing HFA 227 and HFA 134a” (Chiesi Farmaceutici S.p.A., priority 1998, published 2004)
